Measurements published in US10597369B2, “Monosulfonic phenyltetrazole compounds with applications” (HANGZHOU JENNIFER BIOTECH CO., LTD., priority 2015, dated 2020).
Structures can show the parent of a compound that is named as a salt.

Tests used:
[1] = Reagent stability assays (stored tetrazolium detection reagent tested with NADH, response at 450 nm); format: physicochemical; details: for lost activity: detection reagent after storage at 4° C. for a month, tested using 100 μM NADH in 50 mM Tris-Cl (pH 8); for changes in activity on storage: storage at −20° C. for up to a year, tested monthly in NADH titration
Description: The tetrazolium detection reagent (WST-8 or EZMTT) was stored at 4 and −20° C., respectively. Once a month, the stored tetrazolium detection reagent was tested using 100 μM NADH in 50 mM Tris-Cl (pH 8) and the response was measured at 450 nm.
For the stability test, the WST-8, EZMTT detection reagents were stored at 4° C. and −20° C. up to a year. Both reagents were tested in NADH titration every month for their activities.

SMILES	lost activity [1] [%]	changes in activity on storage [1]	melting point [°C]
COc1cc([N+](=O)[O-])ccc1-[n+]1nc(-c2ccc(S(=O)(=O)[O-])cc2S(=O)(=O)[O-])nn1-c1ccc([N+](=O)[O-])cc1.[Na+] [WST-8, 2-(3-(2-methoxy-4-nitrophenyl)-2-(4-nitrophenyl)-2H-tetrazolium)benzene disulfonate sodium salt, reference compound]	60	essentially no changes in activity	
COc1cc([N+](=O)[O-])ccc1-[n+]1nc(-c2ccccc2S(=O)(=O)O)nn1-c1ccc([N+](=O)[O-])cc1 (as salt: sodium) [EZMTT, 2-(4-nitrophenyl)-3-(2-methoxy-4-nitrophenyl)-5 (2-sulfonic phenyl)-2H-tetrazolium monosodium salt]			105
COc1cc([N+](=O)[O-])ccc1-[n+]1nc(-c2ccccc2S(=O)(=O)O)nn1-c1ccc([N+](=O)[O-])cc1 [EZMTT, 2-(4-nitrophenyl)-3-(2-methoxy-4-nitrophenyl)-5 (2-sulfonic phenyl)-2H-tetrazolium monosodium salt]	25	essentially no changes in activity	
